Measured values taken from US20260227408A1, “Compositions and Methods for Modulation of Immune Responses” (Flagship Pioneering Innovations VI, LLC, priority 2022, published 2026).

B1: SEQ ID NO: 37047: target protein of the Sequence Listing, applied as peptide to PBMCs (peptide, listed as Homo sapiens)
chain: MMAQKSKFRVLFMSDPHGTAMPLTSAILESSRASLAAKQEDKCFTDIRNLKWKHFLEHTKQPP
B2: SEQ ID NO: 37477: target protein of the Sequence Listing, applied as peptide to PBMCs (peptide, listed as Homo sapiens)
chain: MSCGSRRGPSLASSLAWLQLQSGTRPFCSSSPPYFLSHGRRIPFSHPRKESALRATKEPRTHRTNTSLADLPSPAPAHL
B3: SEQ ID NO: 36902: target protein of the Sequence Listing, applied as peptide to PBMCs (peptide, listed as Homo sapiens)
chain: MQRLPAAFFRSFAAQGLGESVHINTPTSLSLRGRPFISSSGPGARARVTCAPCLHAARILCCFWRGLHR
B4: SEQ ID NO: 35480: target protein of the Sequence Listing, applied as peptide to PBMCs (peptide, listed as Homo sapiens)
chain: LRPRSAAFAPRYTRLVMRRSSRSFRLQCTGFPSSSAQSISAHLSNSMPSSLLTISRCPGMFAVRCPL
B5: SEQ ID NO: 33169: target protein of the Sequence Listing, applied as peptide to PBMCs (peptide, listed as Homo sapiens)
chain: MCHKGWHGPGVPHHVAFTPCKARLRPATQCQAHSSPRRKMVQAGSIPLAAASGRLCLTHAGWWRGAS
B6: SEQ ID NO: 33741: target protein of the Sequence Listing, applied as peptide to PBMCs (peptide, listed as Homo sapiens)
chain: MSYLPTNPPGSILTCWLGVSLGSHRSARGGSTIYGRLLPRRKDVWFSQAKDVPKYRGLLYLQS
B7: SEQ ID NO: 38393: target protein of the Sequence Listing, applied as peptide to PBMCs (peptide, listed as Homo sapiens)
chain: VALSLLTSQGRQRRAGPSTAFAALPATVATFSAMTESESLRTSRHADTALARVRRGAKFRGQARTRYCARARSHRFTPPSGA

Columns and labels:
[1] = test system: CD3/CD28 (TransAct) activated PBMCs; experiment: PBMC cytokine release by CBA, Inhibition format (peptide with CD3/CD28 TransAct activator); type: cell-based, human; design: key to Inhibition by Analyte IL-1b / Inhibition by Analyte IL-2 / Inhibition by Analyte TNF / Inhibition by Analyte IP-10 / Inhibition by Analyte IL-10: X = a hit with significant activation or inhibition of relevant cytokine release
Description: (§1) CBA (Cytometry) experiment looking at pro-inflammatory cytokines produced by PBMCs treated with secreted peptides.
(§2) Peripheral Blood Mononuclear Cells were seeded+/−the T-cell activator […] and +/−peptides for 24-48 hours. Cytokines were measured from the supernatant after incubation by CBA Cytometer.
(§3) Thawing PBMCs: PBMCs were thawed by pre-warming TexMACS media (Miltenyi Biotech) in 20 ml aliquots-1-50 ml conical per donor. After the media was warmed to 37° C., cells were removed from liquid nitrogen and brought to the tissue culture hood. For each donor, 1 ml of media from the warmed aliquot was added to the frozen vial and mixed up and down. The media plus thawed cells were then added back to the 50 ml conical. This was repeated until all the cells were thawed and added to the 50 ml tube. Continue with other donors if used. Spin cells for 5 min at 400×g. Supernatant was aspirated and cells resuspended at ~10*10^6 cells/ml (see vial for cell number).
(§4) PBMC Plating: Frozen PBMCs from normal, healthy, human volunteers (StemCell Technologies) were thawed and plated at 250,000 cells/well. After PBMCs were thawed and resuspended at […], cells were then counted (Countess III, Thermo Scientific) and adjusted based on counts to […]. Take the number of PBMCs determined by number of wells for the experiment, for example, 10 wells would need 2.5*10^6 cells total or 0.250 ml. The cells needed for the experiment are then transferred to another conical tube. Warmed TexMACS media is added so that the final concentration is 250,000 cells/190 ul media, for example, 10 wells would need 1.9 ml (190 ul×10 wells) of media total minus 0.250 ml of cells (1.9 ml-0.250 ml) or 1.65 ml of media added to the 0.250 ml of cells. Add 190 ul of cells plus media to the 96 well U-bottom plate. Place in incubator until dilutions are made and ready.
(§5) Peptide Dilutions: Ideally, all peptides should be at a starting concentration of at least 10 mM, especially for those in DMSO (ATCC) to reach a final concentration of 1 uM (H2O) or 0.5 uM (DMSO). Dilutions of all test articles should be made at 20× the final concentration, for example, a final concentration of 1 uM peptide would need to be made at 20 uM.
(§6) Reagent Dilution: Dilutions are made in TexMACS media, enough for 10 ul/well in triplicate (30 ul of a 20×). Activator—CD3/CD28 (TransAct; Miltenyi Biotech) or cytokine will be at 21× and added after the 45-minute incubation with peptides. Be sure to include relevant controls—Positive: TransAct+Cells, Negative: Vehicle+Cells. Dilutions should also be made in a ultra-low binding plate (Corning).
(§7) Assay Procedure: Peptide Treatment: Start assay by thawing the cells and plating in a 96 well, U-bottom tissue culture plate (Corning) as described above. Cell plates are placed in a tissue culture incubator (5% CO2, 37° C.). While cells are in the incubator, start making dilutions (optimally 1 hr or less) as described above. Cell plates are removed from the incubator and 10 ul of the 20× dilutions are added to the relevant wells. After the addition of inhibitors, cell plates are placed in the tissue culture incubator for 45 minutes. The plates are removed from the incubator and 10 ul of […] TransAct is added to the relevant wells*. Plates are then returned to the incubator and incubated for 24 hours. After 24 hours, plates are spun for 5 minutes at 400×g. * Activation: This assay can be run in two different formats—Activation and Inhibition. The procedure is the same except no TransAct is needed in the peptide wells for Activation. TransAct is only needed in the control wells. The purpose of this procedure is to determine the possible response from peptides alone.
(§8) Cytometric BeadArray (CBA): After the spin, supernatants (~150 ul) are transferred to a new, ultra-low binding U-bottom plate. Supernatants are then frozen at −20° C. until thawed for CBA (BD) to determine levels of human IL-2, TNFa, IL-1b, IP-10, IL-10, and IFNg. […]

[2] = test system: Peripheral Blood Mononuclear Cells; experiment: PBMC cytokine release by CBA, Activation format (peptide alone); type: cell-based, human; design: key: X = a hit with significant activation or inhibition of relevant cytokine release; conditions: peptide applied to PBMCs alone; supernatant CBA after 24 hours
Description: as §1, §2, §3, §4, §5, §6, §7, §8

[3] = peptide applied with anti-CD3/CD28 T-cell activator, supernatant CBA after 24 hours

Molecule	Inhibition by Analyte IL-1b [1, 3]	Inhibition by Analyte TNF [1, 3]	Activation by Analyte IP-10 [2]	further results
SEQ ID NO: 34837: target protein of the Sequence Listing, applied as peptide to PBMCs (MRSPLSASALLLWSSSVARAFSSPSLLMAVPSPTCSRY; listed as Homo sapiens)	X	X	–	Inhibition by Analyte IL-10 [1, 3]: X; Inhibition by Analyte IP-10 [1, 3]: X
SEQ ID NO: 37363: target protein of the Sequence Listing, applied as peptide to PBMCs (MGGKSWLFFYSLVFCALLPLPRREDPFKLF; listed as Homo sapiens)	X	–	–	–
SEQ ID NO: 37394: target protein of the Sequence Listing, applied as peptide to PBMCs (MESRTLLLLFSGAVALIQTWADYNYNQGRNDLIFTLQLWKRQ; listed as Homo sapiens)	X	–	–	–
SEQ ID NO: 37192: target protein of the Sequence Listing, applied as peptide to PBMCs (MVSHRKDWRRVNLRFSSCLLLSICLDDKPSADELCFWTDHGRSQLTCPSLGVSQGHARSS; listed as Homo sapiens)	–	–	X	–
SEQ ID NO: 35558: target protein of the Sequence Listing, applied as peptide to PBMCs (MTAFGLGIPTFLVMQPSGSQPRFPALTQNGVALVRTPLTSVYLRVRICRVLGPRSQPS; listed as Homo sapiens)	X	X	X	Activation by Analyte IL-10 [2]: X
SEQ ID NO: 37375: target protein of the Sequence Listing, applied as peptide to PBMCs (MARPLSLAAAGAPDLLFTALCSLLIEAQPLRPFDLQVLGDPQPRARTP; listed as Homo sapiens)	–	–	–	Activation by Analyte IL-2 [2]: X
SEQ ID NO: 35373: target protein of the Sequence Listing, applied as peptide to PBMCs (LDFIRAFLLLLVASVPGKIGSQNLTAQRPPVATSFLQMESSEPTVRK; listed as Homo sapiens)	X	X	–	Inhibition by Analyte IL-2 [1, 3]: X; Inhibition by Analyte IP-10 [1, 3]: X
SEQ ID NO: 37043: target protein of the Sequence Listing, applied as peptide to PBMCs (MSEVATLLFSQTALASLESVHPAGHKLWMRNLRQVTSP; listed as Homo sapiens)	–	X	–	Inhibition by Analyte IL-2 [1, 3]: X
SEQ ID NO: 33934: target protein of the Sequence Listing, applied as peptide to PBMCs (MSFDHPEKNGPWPADPINLPSHG; listed as Homo sapiens)	–	X	–	Inhibition by Analyte IL-2 [1, 3]: X
SEQ ID NO: 38042: target protein of the Sequence Listing, applied as peptide to PBMCs (MWWKTPCWWTPSTTATSSSAEARSCGRLLKSMAG; listed as Homo sapiens)	–	–	X	–
SEQ ID NO: 33678: target protein of the Sequence Listing, applied as peptide to PBMCs (METSCSLWVSSELFCRSVKVFFCLLALHLSALPHSSWTQDKNLGLAGMVELK; listed as Homo sapiens)	–	–	X	–
SEQ ID NO: 33885: Target Protein validated as an anti-inflammatory immune modulator (VAEPRRGHLKAALASLGGAAPAAATNGSPPLFK; listed as Homo sapiens)	X	X	–	release of TNF-alpha from activated PBMCs ([1]; CD3/CD28 (TransAct) activated PBMCs, FIG. 1): significantly blocks; release of IL-1b from activated PBMCs ([1]; CD3/CD28 (TransAct) activated PBMCs, FIG. 2): does not block; Inhibition by Analyte IL-2 [1, 3]: X; Inhibition by Analyte IP-10 [1, 3]: X
B1	–	–	X	–
B2	–	–	–	Activation by Analyte IL-1b [2]: X
B3	–	–	X	–
B4	–	–	X	–
B5	–	–	X	–
B6	–	–	X	–
B7	–	–	X	–
